Test system: biopsy samples from patients with IBD
Assay: Cytokine profiles of patient biopsy cultures in response to treatment with various agents (Example 2)
Type: cell-based, human
Method: From each patient, intestinal mucosal biopsies were minced into several pieces and distributed in 8 wells of a 96-well plate in 250 μl of Dulbecco's Modified Eagle Medium (DMEM) supplemented with 10% FBS and antibiotic-antimycotic (Life Technologies, CA). Half of the cultures were treated with infliximab (REMICADE®; 0.5 mg/ml; Janssen Biotech, Inc, NJ) and the plate was incubated at 37° C. in a humidified chamber of 95% O2/5% CO2 for 18 hours. Culture supernatants were collected, filtered and stored at −80° C. […] Signal detection and analysis was performed by MAGPIX® (Luminex Corporation, TX).
[…] with 0.5 mg/ml infliximab (an anti-TNFα antibody; therapeutic agent), 100 μM tofacitinib (a Janus kinase (JAK) inhibitor) and an experimental drug (at 10 μM concentration) in accordance with the protocol described above. Following treatment, biopsy samples were obtained and analyzed for cytokine profiles using […].
Additional similar experiments were conducted for different patients using the same or different therapeutic agents, and the results are shown in FIG. 5D-5H.

## vedolizumab
Patient ID 13-562 (FIG. 5F)
  changes in cytokine profile: only one cytokine expression down-regulation and four cytokine expression up-regulation
  ex vivo response of patient: ex vivo non-responder

## C[C@@H]1CCN(C(=O)CC#N)C[C@@H]1N(C)c1ncnc2[nH]ccc12 [tofacitinib]
100 μM, non-responder group (FIG. 5B)
  cytokines with levels significantly elevated: IL-12p40, IL-12p70, IL-13, IL-17A, IL-2, IL-4, IL-5, and IL-7
100 μM, non-responders (FIG. 5B)
  cytokines with attenuation in levels: MCP-1 and TNFα
100 μM, responders (FIG. 5B)
  cytokines with levels significantly attenuated: IL-6, IL-8, MCP-1, and TNFα
Patient ID 13-394 (FIG. 5E)
  changes in cytokine profile: three cytokine expression down-regulation
  ex vivo response of patient: ex vivo responder

From patent publication US10458996B1, “Methods for determining clinical response to TNF-alpha and/or JAK inhibitors in subjects with inflammatory diseases” (Beth Israel Deaconess Medical Center, Inc., priority 2016, dated 2019)
